Results reported in patent US20230295087A1, “AGONISTS OF ROR GAMMAt” (BRISTOL-MYERS SQUIBB COMPANY, priority 2019, published 2023).

Molecular target: T1, human RORgT (Homo sapiens, UniProt P51449)
T1 construct: expressed in transfected cells
T1 sequence (P51449 267-516): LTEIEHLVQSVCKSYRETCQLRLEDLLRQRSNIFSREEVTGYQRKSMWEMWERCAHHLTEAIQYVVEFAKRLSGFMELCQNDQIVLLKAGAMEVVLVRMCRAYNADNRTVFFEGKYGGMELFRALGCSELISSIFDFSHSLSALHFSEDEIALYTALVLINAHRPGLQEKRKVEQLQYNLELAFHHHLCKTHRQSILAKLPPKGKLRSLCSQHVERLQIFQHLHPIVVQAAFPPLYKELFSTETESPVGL
Assay: RORgT Gal4 Luciferase Reporter Gene Assay
Format: cell-based
Conditions: engineered Jurkat cells overexpressing RORgT (LBD or full length) fused with Gal4 Luc reporter; 18 hours at 37° C.; luminescence
Summary of the method: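 Jurkat cells expressing Gal4 Luc with either RORgT LBD (aa267-516) or full-length human RORgT, 10,000 cells/well, treated with compound (40 µM to 0.67 nM final, 3-fold dilutions) for 18 h at 37° C. Steady-Glo luminescence read; inhibition of constitutive activity as % signal-window reduction relative to a control compound.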

| EC50 [µM] | Structure (SMILES) |
| --- | --- |
| 0.014 | O=C(CN1CCS(=O)(=O)CC1)N1CC[C@@]2(S(=O)(=O)c3ccccc3)c3ccc(OCc4c(F)cccc4Cl)cc3CC[C@@H]12 [Example 139, 4-{2-[(3aR,9bR)-9b-(benzenesulfonyl)-7-[(2-chloro-6-fluorophenyl)methoxy]-1H,2H,3H,3aH,4H,5H,9bH-benzo[e]indol-3-yl]-2-oxoethyl}-1λ^6-thiomorpholine-1,1-dione] |
| 0.134 | O=C1CC(C(=O)N2CC[C@@]3(S(=O)(=O)c4ccccc4)c4ccc(OCc5c(F)cccc5Cl)cc4CC[C@@H]23)CN1 (stereo partly drawn) [Example 140, 4-[(3aR,9bR)-9b-(benzenesulfonyl)-7-[(2-chloro-6-fluorophenyl)methoxy]-1H,2H,3H,3aH,4H,5H,9bH-benzo[e]indole-3-carbonyl]pyrrolidin-2-one] |
| 0.01 | NC(=O)N1CCC(C(=O)N2CC[C@@]3(S(=O)(=O)c4ccccc4)c4ccc(OCc5c(F)cccc5Cl)cc4CC[C@@H]23)CC1 [Example 141, 4-[(3aR,9bR)-9b-(benzenesulfonyl)-7-[(2-chloro-6-fluorophenyl)methoxy]-1H,2H,3H,3aH,4H,5H,9bH-benzo[e]indole-3-carbonyl]piperidine-1-carboxamide] |
| 0.013 | O=C(O)[C@H]1CC[C@H](C(=O)N2CC[C@@]3(S(=O)(=O)c4ccccc4)c4ccc(OCc5c(F)cccc5Cl)cc4CC[C@@H]23)CC1 [Example 142, (1r,4r)-4-[(3aR,9bR)-9b-(benzenesulfonyl)-7-[(2-chloro-6-fluorophenyl)methoxy]-1H,2H,3H,3aH,4H,5H,9bH-benzo[e]indole-3-carbonyl]cyclohexane-1-carboxylic acid] |
| 0.195 | O=C1CC[C@H](C(=O)N2CC[C@@]3(S(=O)(=O)c4ccccc4)c4ccc(OCc5c(F)cccc5Cl)cc4CC[C@@H]23)N1 [Example 143, (5R)-5-[(3aR,9bR)-9b-(benzenesulfonyl)-7-[(2-chloro-6-fluorophenyl)methoxy]-1H,2H,3H,3aH,4H,5H,9bH-benzo[e]indole-3-carbonyl]pyrrolidin-2-one] |
| 0.111 | CN1NC(=O)C[C@H]1C(=O)N1CC[C@@]2(S(=O)(=O)c3ccccc3)c3ccc(OCc4c(F)cccc4Cl)cc3CC[C@@H]12 [Example 144, (5S)-5-[(3aR,9bR)-9b-(benzenesulfonyl)-7-[(2-chloro-6-fluorophenyl)methoxy]-1H,2H,3H,3aH,4H,5H,9bH-benzo[e]indole-3-carbonyl]-1-methylpyrazolidin-3-one] |
| 0.614 | CS(=O)(=O)NCC(=O)N1CC[C@@]2(S(=O)(=O)c3ccccc3)c3ccc(OCc4c(F)cccc4Cl)cc3CC[C@@H]12 [Example 145, N-{2-[(3aR,9bR)-9b-(benzenesulfonyl)-7-[(2-chloro-6-fluorophenyl)methoxy]-1H,2H,3H,3aH,4H,5H,9bH-benzo[e]indol-3-yl]-2-oxoethyl} methanesulfonamide] |
| 0.0065 | [2H]C([2H])([2H])N1C(=O)CC[C@H]1C(=O)N1CC[C@@]2(S(=O)(=O)c3ccccc3)c3ccc(OCc4c(F)cccc4Cl)cc3CC[C@@H]12 [Example 146, (5S)-5-[(3aR,9bR)-9b-(benzenesulfonyl)-7-[(2-chloro-6-fluorophenyl)methoxy]-1H,2H,3H,3aH,4H,5H,9bH-benzo[e]indole-3-carbonyl]-1-(^2H)methylpyrrolidin-2-one] |
| 0.104 | O=C(O)C12CCC(C(=O)N3CC[C@@]4(S(=O)(=O)c5ccccc5)c5ccc(OCc6c(F)cccc6Cl)cc5CC[C@@H]34)(CC1)CC2 [Example 147, 4-[(3aR,9bR)-9b-(benzenesulfonyl)-7-[(2-chloro-6-fluorophenyl)methoxy]-1H,2H,3H,3aH,4H,5H,9bH-benzo[e]indole-3-carbonyl]bicyclo[2.2.2]octane-1-carboxylic acid] |
| 0.119 | NS(=O)(=O)CC(=O)N1CC[C@@]2(S(=O)(=O)c3ccccc3)c3ccc(OCc4c(F)cccc4Cl)cc3CC[C@@H]12 [Example 148, 2-[(3aR,9bR)-9b-(benzenesulfonyl)-7-[(2-chloro-6-fluorophenyl)methoxy]-1H,2H,3H,3aH,4H,5H,9bH-benzo[e]indol-3-yl]-2-oxoethane-1-sulfonamide] |
| 0.0077 | O=C(C1CCS(=O)(=O)CC1)N1CC[C@@]2(S(=O)(=O)c3ccccc3)c3ccc(OCc4c(F)cc(F)cc4Cl)cc3CC[C@@H]12 [Example 149, 4-[(3aR,9bR)-9b-(benzenesulfonyl)-7-[(2-chloro-4,6-difluorophenyl)methoxy]-1H,2H,3H,3aH,4H,5H,9bH-benzo[e]indole-3-carbonyl]-1λ^6-thiane-1,1-dione] |
| 0.0061 | CN1C(=O)CC[C@H]1C(=O)N1CC[C@@]2(S(=O)(=O)c3ccccc3)c3ccc(OCc4c(F)cccc4Cl)cc3CC[C@@H]12 [Example 150, (5S)-5-[(3aR,9bR)-9b-(benzenesulfonyl)-7-[(2-chloro-6-fluorophenyl)methoxy]-1H,2H,3H,3aH,4H,5H,9bH-benzo[e]indole-3-carbonyl]-1-methylpyrrolidin-2-one] |
| 0.016 | O=C(O)[C@H]1CC[C@H](C(=O)N2CC[C@@]3(S(=O)(=O)c4ccc(F)cc4)c4ccc(OCc5cc(F)c(F)cc5Cl)cc4CC[C@@H]23)CC1 [Example 151, (1r,4r)-4-[(3aR,9bR)-7-[(2-chloro-4,5-difluorophenyl)methoxy]-9b-(4-fluorobenzenesulfonyl)-1H,2H,3H,3aH,4H,5H,9bH-benzo[e]indole-3-carbonyl]cyclohexane-1-carboxylic acid] |
| 0.015 | O=C(C1CCS(=O)(=O)CC1)N1CC[C@@]2(S(=O)(=O)c3ccc(F)cc3)c3ccc(OCc4cc(F)c(F)cc4Cl)cc3CC[C@@H]12 [Example 152, 4-[(3aR,9bR)-7-[(2-chloro-4,5-difluorophenyl)methoxy]-9b-(4-fluorobenzenesulfonyl)-1H,2H,3H,3aH,4H,5H,9bH-benzo[e]indole-3-carbonyl]-1λ^6-thiane-1,1-dione] |
| 0.014 | O=C(C1CCS(=O)(=O)CC1)N1CC[C@@]2(S(=O)(=O)c3ccc(F)cc3)c3ccc(OCc4cccc(Cl)c4)cc3CC[C@@H]12 [Example 153, 4-[(3aR,9bR)-7-[(3-chlorophenyl)methoxy]-9b-(4-fluorobenzenesulfonyl)-1H,2H,3H,3aH,4H,5H,9bH-benzo[e]indole-3-carbonyl]-1λ^6-thiane-1,1-dione] |
| 0.058 | NS(=O)(=O)CC(=O)N1CC[C@@]2(S(=O)(=O)c3ccc(F)cc3)c3ccc(OCc4c(F)cccc4Cl)cc3CC[C@@H]12 [Example 154, 2-[(3aR,9bR)-7-[(2-chloro-6-fluorophenyl)methoxy]-9b-(4-fluorobenzenesulfonyl)-1H,2H,3H,3aH,4H,5H,9bH-benzo[e]indol-3-yl]-2-1 oxoethane-1-sulfonamide] |
| 0.0043 | N#CCCN1C(=O)CC[C@H]1C(=O)N1CC[C@@]2(S(=O)(=O)c3ccc(F)cc3)c3ccc(OCc4c(F)cccc4C(F)(F)F)cc3CC[C@@H]12 [Example 155, 3-[(2S)-2-[(3aR,9bR)-7-{[2-fluoro-6-(trifluoromethyl)phenyl]methoxy}-9b-(4-fluorobenzenesulfonyl)-1H,2H,3H,3aH,4H,5H,9bH-benzo[e]indole-3-carbonyl]-5-oxopyrrolidin-1-yl]propanenitrile] |
| 0.011 | N#CCCN1C(=O)CC[C@H]1C(=O)N1CC[C@@]2(S(=O)(=O)c3ccc(F)cc3)c3ccc(OCc4c(Cl)cccc4Cl)cc3CC[C@@H]12 [Example 156, 3-[(2S)-2-[(3aR,9bR)-7-[(2,6-dichlorophenyl)methoxy]-9b-(4-fluorobenzenesulfonyl)-1H,2H,3H,3aH,4H,5H,9bH-benzo[e]indole-3-carbonyl]-5-oxopyrrolidin-1-yl]propanenitrile] |
| 0.0043 | N#CCCN1C(=O)CC[C@H]1C(=O)N1CC[C@@]2(S(=O)(=O)c3ccc(F)cc3)c3ccc(OCc4cc(Cl)ccc4Cl)cc3CC[C@@H]12 [Example 157, 3-[(2S)-2-[(3aR,9bR)-7-[(2,5-dichlorophenyl)methoxy]-9b-(4-fluorobenzenesulfonyl)-1H,2H,3H,3aH,4H,5H,9bH-benzo[e]indole-3-carbonyl]-5-oxopyrrolidin-l-yl]propanenitrile] |
| 0.012 | N#CCCN1C(=O)CC[C@H]1C(=O)N1CC[C@@]2(S(=O)(=O)c3ccc(F)cc3)c3ccc(OCc4cc(F)c(F)cc4Cl)cc3CC[C@@H]12 [Example 158, 3-[(2S)-2-[(3aR,9bR)-7-[(2-chloro-4,5-difluorophenyl)methoxy]-9b-(4-fluorobenzenesulfonyl)-1H,2H,3H,3aH,4H,5H,9bH-benzo[e]indole-3-carbonyl]-5-oxopyrrolidin-l-yl]propanenitrile] |
| 0.0011 | O=C(O)[C@H]1CC[C@H](C(=O)N2CC[C@@]3(S(=O)(=O)c4ccc(F)cc4)c4ccc(CCc5c(Cl)cccc5Cl)cc4CC[C@@H]23)CC1 [Example 159, (1r,4r)-4-[(3aR,9bR)-7-[2-(2,6-dichlorophenyl)ethyl]-9b-(4-fluorobenzenesulfonyl)-1H,2H,3H,3aH,4H,5H,9bH-benzo[e]indole-3-carbonyl]cyclohexane-1-carboxylic acid] |
| 0.01 | N#CCCN1C(=O)CC[C@H]1C(=O)N1CC[C@@]2(S(=O)(=O)c3ccc(F)cc3)c3ccc(OCc4c(F)cccc4Cl)cc3CC[C@@H]12 [Example 160, 3-[(2S)-2-[(3aR,9bR)-7-[(2-chloro-6-fluorophenyl)methoxy]-9b-(4-fluorobenzenesulfonyl)-1H,2H,3H,3aH,4H,5H,9bH-benzo[e]indole-3-carbonyl]-5-oxopyrrolidin-l-yl]propanenitrile] |
